Laboratory results as given in US4642314A, “Antiulcer compounds” (Nisshin Flour Milling Co., Ltd., priority 1984, dated 1987).

Columns and labels:
[1] = tested on: acetic acid-induced ulcer; experiment: Acetic acid-induced ulcer (Curative test); type: in vivo, rat (male SD rats); settings: Table 2; rat, 0.05 ml of 15% acetic acid underneath the serosa; lesion area on 14th day
Description: (§1) In the case of reserpine-induced ulcer, the assay was performed according to the description in "Arch. Int. Pharmacodym. Ther. 147,113 (1964)", and in the case of acetic acid-induced ulcer, the assay was performed according to the method described in "Jap. J. Pharmac. 19,418 (1969)", by inducing experimental ulcer in rat and evaluating the effect thereon of the compounds tested.
Groups of rats, each consisting of 6 male SD rats weighing 150-200 g were used. The stomach of ether-anesthesized rat was exposed and while taking acre not to injure blood vessels, 0.05 ml of 15% aqueous acetic acid solution was injected underneath the serosa. On the 14th day, the rats were killed with chloroform, the stomach taken out and the area of the infected lesion measured.
The curative ratio was calculated using the above equation: [formula]

[2] = acute toxicity (LD50), intraperitoneal route in mice; type: in vivo; settings: mouse, in vivo, ip
mice = experiment: as above; type: in vivo
reserpine-induced ulcer = experiment: Reserpine-induced ulcer (Preventive test); type: in vivo, rat (male SD rats); settings: Table 1; rat, 100 mg/kg oral, 30 min before reserpine 15 mg/kg i.p.; evaluated at 18 h; read-out: Preventive effect (preventive ratio)
Description: as §1
Groups of rats, each consisting of 6 male SD rats weighing 150-200 g were used. After 24 hours' fasting, a sample compound was orally administered to the rat at the dose of 100 mg/kg body weight, and 30 minutes after the administration, reserpine was intraperitoneally injected at the dose of 15 mg/kg body weight. Eighteen hours after the administration, the rats were killed with chloroform. The stomach was taken out, and severity of the hemorrhaging lesion was evaluated according to the method as above ("Arch. Int. Pharmacodym. Ther. 147,113 (1964)).
The preventive ratio was calculated using the following equation, [formula] wherein the control animals were intraperitoneally given reserpine only, at the dose of 15 mg/kg body weight.

Structure (SMILES)	Curative effect (curative ratio) [1]	LD50 ([2]; Table 1)	LD50 (mice; Table 2)	inhibition in vivo at 100 mg/kg (reserpine-induced ulcer)	LD50 ([2]; Table 2)	LD50 (mice; Table 1)
CC(C)CCCC(C)CCCC(C)CCCC(C)CCCC(C)CCCC(C)CCCC(C)CCCC(C)CCCC(C)CCCC(C)CCO (stereo not drawn) [Saturated decaprenol]	++ (25%-40%)	> 5000 mg/kg	> 5000 mg/kg	10 to 40%	–	–
C/C(=C\CCC(=O)O)CCC[C@H](C)CCC[C@H](C)CCCC(C)C [Phytylacetic acid]	+ (10%-25%)	–	–	10 to 40%	> 5000 mg/kg	> 5000 mg/kg
CC(=CCCC(=O)Oc1c(C)c(C)c2c(c1C)CCC(C)(CCCC(C)CCCC(C)CCCC(C)C)O2)CCCC(C)CCCC(C)CCCC(C)C (stereo not drawn) [α-Tocopheryl phytylacetate]	+++ (40%-)	–	–	10 to 40%	> 4000 mg/kg	> 4000 mg/kg
CCCCCCCC/C=C\CCCCCCCC(=O)OC/C=C(\C)CCC[C@H](C)CCC[C@H](C)CCCC(C)C [Phytyl oleate]	+++ (40%-)	–	–	> 60%	> 4000 mg/kg	> 4000 mg/kg
C=CC(C)(O)CCC=C(C)CCC=C(C)CCC=C(C)CCC=C(C)CCC=C(C)CCC=C(C)CCC=C(C)CCC=C(C)CCC=C(C)C (stereo not drawn) [Isodecaprenol]	++ (25%-40%)	> 4000 mg/kg	> 4000 mg/kg	10 to 40%	–	–
CCCCCCCC/C=C\CCCCCCCC(=O)OCC=C(C)CCC=C(C)CCC=C(C)CCC=C(C)CCC=C(C)CCC=C(C)CCC=C(C)CCC=C(C)CCC=C(C)C [Solanesyl oleate]	++ (25%-40%)	–	–	10 to 40%	> 4000 mg/kg	> 4000 mg/kg
CC(=O)OC/C=C(\C)CCC[C@H](C)CCC[C@H](C)CCCC(C)C [Phytyl acetate]	+ (10%-25%)	–	–	40 to 60%	> 5000 mg/kg	> 5000 mg/kg
CCCCCCCC/C=C/CCCCCCCCCCCC(=O)OC/C=C(\C)CCC[C@H](C)CCC[C@H](C)CCCC(C)C [Phytyl brassidate]	++ (25%-40%)	–	–	10 to 40%	> 4000 mg/kg	> 4000 mg/kg
CC(C)=CCC/C(C)=C/CC/C(C)=C/CC/C(C)=C/CC/C(C)=C/CC/C(C)=C/CC/C(C)=C/CC/C(C)=C/CC/C(C)=C/CO [Solanesol]	++ (25%-40%)	> 4000 mg/kg	> 4000 mg/kg	10 to 40%	–	–
CCCCCCCC/C=C\CCCCCCCC(=O)OCC=C(C)CCC=C(C)CCC=C(C)CCC=C(C)CCC=C(C)CCC=C(C)CCC=C(C)CCC=C(C)CCC=C(C)CCC=C(C)C [Decaprenyl oleate]	++ (25%-40%)	–	–	40 to 60%	> 5000 mg/kg	> 5000 mg/kg
CC(C)=CCCC(C)=CCCC(C)=CCCC(=O)Oc1c(C)c(C)c2c(c1C)CCC(C)(CCCC(C)CCCC(C)CCCC(C)C)O2 (stereo not drawn) [α-Tocopheryl farnesylacetate]	++ (25%-40%)	–	–	40 to 60%	> 4000 mg/kg	> 4000 mg/kg
CC(C)=CCCC(C)=CCCC(=O)Oc1c(C)c(C)c2c(c1C)CCC(C)(CCCC(C)CCCC(C)CCCC(C)C)O2 (stereo not drawn) [α-Tocopheryl geranylacetate]	+ (10%-25%)	–	–	40 to 60%	> 4000 mg/kg	> 4000 mg/kg
CC(C)=CCCC(C)=CCCC(C)=CCCC(C)=CCCC(C)=CCCC(C)=CCCC(C)=CCCC(C)=CCCC(C)=CCCC(C)=CCCC(=O)O [Decaprenylacetic acid]	+++ (40%-)	–	–	40 to 60%	> 4000 mg/kg	> 4000 mg/kg
CC(=O)OCC=C(C)CCC=C(C)CCC=C(C)CCC=C(C)CCC=C(C)CCC=C(C)CCC=C(C)CCC=C(C)CCC=C(C)CCC=C(C)C [Decaprenyl acetate]	+ (10%-25%)	–	–	40 to 60%	> 5000 mg/kg	> 5000 mg/kg
CC(C)=CCCC(C)=CCCC(C)=CCCC(=O)OCC=C(C)CCC=C(C)C [Gefarnate, 3,7-dimethyl-2,6-octadienyl-5,9,13-trimethyl-4,8,12-tetradecatrienoate, reference compound]	± (-10%)	–	–	10 to 40%	–	–
CCCCCCCCCCCCCCCCCC(=O)OCCC(C)CCCC(C)CCCC(C)CCCC(C)C (stereo not drawn) [Dihydrophytyl stearate]	–	> 4000 mg/kg	–	10 to 40%	–	–
CC(C)=CCCC(C)=CCCC(C)=CCCC(C)=CCCC(C)=CCCC(C)=CCCC(C)=CCCC(C)=CCCC(C)=CCCC(C)=CCOC(=O)CCC=C(C)CCCC(C)CCCC(C)CCCC(C)C (stereo not drawn) [Decaprenyl phytylacetate]	++ (25%-40%)	–	–	40 to 60%	> 5000 mg/kg	> 5000 mg/kg
CCCCCCCC/C=C\CCCCCCCC(=O)OCCC(C)CCCC(C)CCCC(C)CCCC(C)C (stereo not drawn) [Dihydrophytyl oleate]	–	> 4000 mg/kg	–	10 to 40%	–	–
CC(C)=CCCC(C)=CCCC(C)=CCCC(C)=CCCC(C)=CCCC(C)=CCCC(C)=CCCC(C)=CCCC(C)=CCCC(C)=CCCC(=O)OCC=C(C)CCC=C(C)CCC=C(C)CCC=C(C)CCC=C(C)CCC=C(C)CCC=C(C)CCC=C(C)CCC=C(C)CCC=C(C)C [Decaprenyl decaprenylacetate]	+ (10%-25%)	–	> 5000 mg/kg	–	–	–
CCCCCCCCCCCC(=O)OC/C=C(\C)CCC[C@H](C)CCC[C@H](C)CCCC(C)C [Phytyl laurate]	–	> 5000 mg/kg	–	40 to 60%	–	–
CC(C)=CCCC(C)=CCCC(C)=CCCC(C)=CCCC(C)=CCCC(C)=CCCC(C)=CCCC(C)=CCCC(C)=CCCC(C)=CCCC(=O)Oc1c(C)c(C)c2c(c1C)CCC(C)(CCCC(C)CCCC(C)CCCC(C)C)O2 (stereo not drawn) [α-Tocopheryl decaprenylacetate]	–	> 4000 mg/kg	–	10 to 40%	–	–
CC(C)=CCCC(C)=CCCC(C)=CCCC(C)=CCCC(C)=CCCC(C)=CCCC(C)=CCCC(C)=CCCC(C)=CCCC(C)=CCCC(=O)OCC=C(C)CCCC(C)CCCC(C)CCCC(C)C (stereo not drawn) [Phytyl decaprenylacetate]	+ (10%-25%)	–	–	10 to 40%	> 4000 mg/kg	> 4000 mg/kg
C/C(=C\CCC(=O)OC(C)C)CCC[C@H](C)CCC[C@H](C)CCCC(C)C [Isopropyl phytylacetate]	–	> 5000 mg/kg	–	10 to 40%	–	–
CCCCCCCC/C=C/CCCCCCCC(=O)OCC=C(C)CCC=C(C)CCC=C(C)CCC=C(C)CCC=C(C)CCC=C(C)CCC=C(C)CCC=C(C)CCC=C(C)CCC=C(C)C [Decaprenyl elaidate]	–	> 5000 mg/kg	–	10 to 40%	–	–
CC(C)=CCCC(C)=CCCC(C)=CCCC(=O)OCC=C(C)CCC=C(C)CCC=C(C)CCC=C(C)CCC=C(C)CCC=C(C)CCC=C(C)CCC=C(C)CCC=C(C)C [Solanesyl farnesylacetate]	–	> 4000 mg/kg	–	10 to 40%	–	–
C=CC(C)(CCCC(C)CCCC(C)CCCC(C)C)OC(=O)CCCCCCC/C=C\CCCCCCCC (stereo not drawn) [Isophytyl oleate]	+++ (40%-)	–	–	> 60%	> 4000 mg/kg	> 4000 mg/kg
CC(C)=CCC/C(C)=C/CCC(=O)OC/C=C(\C)CCC[C@H](C)CCC[C@H](C)CCCC(C)C [Phytyl geranylacetate]	–	> 5000 mg/kg	–	10 to 40%	–	–
CC(C)=CCCC(C)CCCC(=O)Oc1c(C)c(C)c2c(c1C)CCC(C)(CCCC(C)CCCC(C)CCCC(C)C)O2 (stereo not drawn) [α-Tocopheryl citronellylacetate]	–	> 4000 mg/kg	–	> 60%	–	–
